This test addresses T1, ΔF508 expressing CFBE410- lung cells (Homo sapiens, UniProt P13569, DEL508-508).
T1 construct: host or cells: CFBE41o- lung cells
The test can be described thus: CFTR folding and trafficking assay (immunoblot of band B and C glycoforms). In kind it is cell-based. As to conditions: CFBE410- lung cells cultured in presence of compound versus DMSO; FIG. 1. As to the method: CFTR transport assays. Either ΔF508 expressing CFBE410- lung cells were cultured in the presence or absence of reagent in 12 well Sarstedt dishes, harvested, lysed and the processing of CFTR from the band B to the band C glycoform detected by SDS-PAGE and immunoblotting using either monoclonal 3G11 or M3A7.
Quantitation of CFTR glycoforms: Immunoblot exposures were selected to allow visualization of CFTR recovery under identical protein loads in same SDS-PAGE for all treatments. Given the dynamic range, quantitation of the band B and C glycoforms was made by analysis of band intensities that were in the linear range. The x-ray films were exposed for increasing time and the different exposures were quantified using a FluroChemSP (Alpha Inotech) densitometer/software package. Where band B and C were quantified from different exposures, an internal reference was used to normalize the signal intensity. This method is described in more detail in Hutt et al. (2010).^16 Reduced histone deacetylase 7 activity restores function to misfolded CFTR in cystic fibrosis, Nature Chemical Biology (2010), 6(1), 25-33, the contents of which are expressly incorporated by reference herein.
For orientation: In western blotting, separated proteins are transferred to a membrane and probed.

We go through 1 molecule from patent US20130072473A1, “COMPOUNDS FOR TREATING PROTEIN FOLDING DISORDERS” (PROTEOSTASIS THERAPEUTICS, INC., priority 2011, published 2013).

T1 sequence (P13569 with tags, fused parts or gaps DEL508-508): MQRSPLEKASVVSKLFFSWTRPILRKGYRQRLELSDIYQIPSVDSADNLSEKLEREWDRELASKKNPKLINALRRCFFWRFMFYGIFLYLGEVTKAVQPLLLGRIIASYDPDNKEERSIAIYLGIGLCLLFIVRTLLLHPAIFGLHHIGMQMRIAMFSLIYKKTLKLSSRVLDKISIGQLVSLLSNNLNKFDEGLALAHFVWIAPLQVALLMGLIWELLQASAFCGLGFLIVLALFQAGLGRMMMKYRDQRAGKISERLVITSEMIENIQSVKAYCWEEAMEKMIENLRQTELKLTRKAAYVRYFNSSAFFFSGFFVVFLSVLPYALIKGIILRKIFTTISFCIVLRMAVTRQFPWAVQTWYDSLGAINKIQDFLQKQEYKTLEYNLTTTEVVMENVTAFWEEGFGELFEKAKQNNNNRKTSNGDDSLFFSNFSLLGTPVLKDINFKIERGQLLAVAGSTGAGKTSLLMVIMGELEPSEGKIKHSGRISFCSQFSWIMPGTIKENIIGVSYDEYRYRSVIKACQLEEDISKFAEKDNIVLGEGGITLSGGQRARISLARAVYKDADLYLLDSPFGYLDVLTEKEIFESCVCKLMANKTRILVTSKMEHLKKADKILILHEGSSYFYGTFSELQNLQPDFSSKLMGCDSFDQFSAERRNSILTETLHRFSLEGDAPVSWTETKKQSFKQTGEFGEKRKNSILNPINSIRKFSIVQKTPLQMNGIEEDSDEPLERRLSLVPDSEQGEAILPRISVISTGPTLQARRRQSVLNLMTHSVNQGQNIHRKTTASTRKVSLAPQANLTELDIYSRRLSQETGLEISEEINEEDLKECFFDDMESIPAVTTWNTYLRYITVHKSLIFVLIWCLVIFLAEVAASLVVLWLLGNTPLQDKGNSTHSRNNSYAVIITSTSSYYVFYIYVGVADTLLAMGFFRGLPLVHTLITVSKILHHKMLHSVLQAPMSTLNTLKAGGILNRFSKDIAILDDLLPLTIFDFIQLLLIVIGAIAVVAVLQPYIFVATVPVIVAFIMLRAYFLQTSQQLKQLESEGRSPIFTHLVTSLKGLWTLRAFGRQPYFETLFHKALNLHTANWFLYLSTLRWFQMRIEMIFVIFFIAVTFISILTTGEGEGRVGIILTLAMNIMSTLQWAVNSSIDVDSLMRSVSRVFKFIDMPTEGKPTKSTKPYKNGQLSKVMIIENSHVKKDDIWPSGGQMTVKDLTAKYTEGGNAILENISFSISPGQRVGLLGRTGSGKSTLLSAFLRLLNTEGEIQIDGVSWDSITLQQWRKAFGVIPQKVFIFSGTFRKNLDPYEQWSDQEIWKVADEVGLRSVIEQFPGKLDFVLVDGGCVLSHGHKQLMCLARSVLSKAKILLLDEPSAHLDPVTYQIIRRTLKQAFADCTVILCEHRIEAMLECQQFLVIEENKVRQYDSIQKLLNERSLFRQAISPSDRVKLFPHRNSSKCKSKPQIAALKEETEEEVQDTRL

On to `CCN1CCc2c(sc(NC(C)=O)c2-c2nc3ccccc3s2)C1` [Example 2, N-(3-(benzo[d]thiazol-2-yl)-6-ethyl-4,5,6,7-tetrahydrothieno[2,3-c]pyridin-2-yl)acetamide], for which the “levels of CFTR band B and C by immunoblot” value is “enhanced levels of band B and C”.
